Experimental data: ChEMBL document CHEMBL5584329, “Development of new dehydrocostuslactone derivatives for treatment of atopic dermatitis via inhibition of the NF-κB signaling pathway” (RSC Med Chem, 2024)
Each block holds one compound with its values, some of them ahead of it. Activity calls are given as the source filed them. The rule behind the calls is not given here.

Legend:
[1] = system: RAW264.7; experiment: Inhibition of LPS-induced NO production in mouse RAW264.7 cells at 20 uM preincubated for 2 hrs followed by LPS addition and measured after 24 hrs by Griess assay relative to control; type: functional; details: time 26 hrs
[2] = Cytotoxicity against mouse RAW264.7 cells assessed as inhibition of cell viability by MTT assay relative to control; type: toxicity, cell-based
[3] = Cytotoxicity against mouse RAW264.7 cells assessed as inhibition of cell viability at 20 uM by MTT assay relative to control; type: toxicity, cell-based; details: read-out: INH
[4] = system: RAW264.7; experiment: Inhibition of LPS-induced NO production in mouse RAW264.7 cells preincubated for 2 hrs followed by LPS addition and measured after 24 hrs by Griess assay relative to control; type: functional, cell-based
[5] = system: Mus musculus; experiment: In vivo inhibition of MAPK signalling pathway in MC093-induced atopic dermatitis BALB/c mouse model assessed as reduction in p-ERK/ERK ratio in ear skin at 50 to 100 mg/kg, IG administered starting from day 4 to 10 after MC093-stimulation by Western blot analysis; type: functional, organism-based; details: dose 50-100 mg/kg, time 7.0 day
[6] = system: Mus musculus; experiment: Antiinflammatory activity against MC093-induced atopic dermatitis BALB/c mouse model assessed as reduction in weight of ear at 50 to 100 mg/kg, IG administered starting from day 4 to 10 after MC093-stimulation; type: functional, organism-based; details: dose 50-100 mg/kg, time 7.0 day
[7] = system: Mus musculus; experiment: In vivo inhibition of MAPK signalling pathway in MC093-induced atopic dermatitis BALB/c mouse model assessed as reduction in p-JNK/JNK ratio in ear skin at 50 to 100 mg/kg, IG administered starting from day 4 to 10 after MC093-stimulation by Western blot analysis; type: functional, organism-based; details: dose 50-100 mg/kg, time 7.0 day
[8] = system: Mus musculus; experiment: Antiinflammatory activity against MC093-induced atopic dermatitis BALB/c mouse model assessed as reduction in TSLP level in serum at 50 to 100 mg/kg, IG administered starting from day 4 to 10 after MC093-stimulation; type: functional, organism-based; details: dose 50-100 mg/kg, time 7.0 day
[9] = system: Mus musculus; experiment: Antiinflammatory activity against MC093-induced atopic dermatitis BALB/c mouse model assessed as reduction in IL-13 level in serum at 50 to 100 mg/kg, IG administered starting from day 4 to 10 after MC093-stimulation; type: functional, organism-based; details: dose 50-100 mg/kg, time 7.0 day
[10] = system: Mus musculus; experiment: Antiinflammatory activity against MC093-induced atopic dermatitis BALB/c mouse model assessed as reduction in IL-4 level in serum at 50 to 100 mg/kg, IG administered starting from day 4 to 10 after MC093-stimulation; type: functional, organism-based; details: dose 50-100 mg/kg, time 7.0 day
[11] = system: Mus musculus; experiment: In vivo inhibition of […] signalling pathway in MC093-induced atopic dermatitis BALB/c mouse model assessed as reduction in IkappaB-alpha phosphorylation level in ear skin at 50 to 100 mg/kg, IG administered starting from day 4 to 10 after MC093-stimulation by immunohistochemistry analysis; type: functional, organism-based; details: dose 50-100 mg/kg, time 7.0 day
[12] = system: Mus musculus; experiment: Antiinflammatory activity against MC093-induced atopic dermatitis BALB/c mouse model assessed as reduction in number of scratches at 50 to 100 mg/kg, IG administered starting from day 4 to 10 and measured after 30 mins of MC093-stimulation; type: functional, organism-based; details: dose 50-100 mg/kg, time 7.0 day
[13] = system: Mus musculus; experiment: Antiinflammatory activity against MC093-induced atopic dermatitis BALB/c mouse model assessed as reduction in epidermal thickness of ear at 50 to 100 mg/kg, IG administered starting from day 4 to 10 after MC093-stimulation by H and E staining assay; type: functional, organism-based; details: dose 50-100 mg/kg, time 7.0 day
[14] = system: Mus musculus; experiment: Antiinflammatory activity against MC093-induced atopic dermatitis BALB/c mouse model assessed as reduction in IL-5 level in serum at 50 to 100 mg/kg, IG administered starting from day 4 to 10 after MC093-stimulation; type: functional, organism-based; details: dose 50-100 mg/kg, time 7.0 day
[15] = system: Mus musculus; experiment: Antiinflammatory activity against MC093-induced atopic dermatitis BALB/c mouse model assessed as reduction in scratching latency at 50 to 100 mg/kg, IG administered starting from day 4 to 10 and measured after 30 mins of MC093-stimulation; type: functional, organism-based; details: dose 50-100 mg/kg, time 7.0 day
[16] = system: Mus musculus; experiment: In vivo inhibition of NFkappaB signalling pathway in IG dosed MC093-induced atopic dermatitis BALB/c mouse model assessed as reduction in P65 phosphorylation level in ear skin starting from day 4 to 10 after MC093-stimulation by Western blot analysis; type: functional, organism-based; details: dose 50-100 mg/kg, time 7.0 day
[17] = system: Mus musculus; experiment: Antiinflammatory activity against MC093-induced atopic dermatitis BALB/c mouse model assessed as reduction in IgE level in serum at 50 to 100 mg/kg, IG administered starting from day 4 to 10 after MC093-stimulation; type: functional, organism-based; details: dose 50-100 mg/kg, time 7.0 day
[18] = target: MAP kinase p38 (Mus musculus) (UniProt P47811+O08911+Q9WUI1+Q9Z1B7); experiment: Inhibition of P38 phosphorylation in LPS-induced mouse RAW264.7 cells preincubated for 2 hrs followed by LPS addition and measured after 24 hrs by Western blot analysis; type: cell-based; details: dose 2.5-10 µmol, time 26.0 hrs
[19] = system: Mus musculus; experiment: In vivo inhibition of […] signalling pathway in MC093-induced atopic dermatitis BALB/c mouse model assessed as reduction in P65 phosphorylation level in ear skin at 50 to 100 mg/kg, IG administered starting from day 4 to 10 after MC093-stimulation by immunohistochemistry analysis; type: functional, organism-based; details: dose 50-100 mg/kg, time 7.0 day
[20] = system: Mus musculus; experiment: Antiinflammatory activity against MC093-induced atopic dermatitis BALB/c mouse model assessed as reduction in IL-33 level in serum at 50 to 100 mg/kg, IG administered starting from day 4 to 10 after MC093-stimulation; type: functional, organism-based; details: dose 50-100 mg/kg, time 7.0 day
[21] = target: T1, Inhibitor of nuclear factor kappa-B kinase subunit alpha (Mus musculus) (UniProt Q60680); experiment: Inhibition of IkappaB-alpha phosphorylation in LPS induced mouse RAW264.7 cells preincubated for 2 hrs followed by LPS addition and measured after 24 hrs by Western blot analysis; type: cell-based; details: dose 2.5-10 µmol, time 26.0 hrs
T1 sequence (whole entry): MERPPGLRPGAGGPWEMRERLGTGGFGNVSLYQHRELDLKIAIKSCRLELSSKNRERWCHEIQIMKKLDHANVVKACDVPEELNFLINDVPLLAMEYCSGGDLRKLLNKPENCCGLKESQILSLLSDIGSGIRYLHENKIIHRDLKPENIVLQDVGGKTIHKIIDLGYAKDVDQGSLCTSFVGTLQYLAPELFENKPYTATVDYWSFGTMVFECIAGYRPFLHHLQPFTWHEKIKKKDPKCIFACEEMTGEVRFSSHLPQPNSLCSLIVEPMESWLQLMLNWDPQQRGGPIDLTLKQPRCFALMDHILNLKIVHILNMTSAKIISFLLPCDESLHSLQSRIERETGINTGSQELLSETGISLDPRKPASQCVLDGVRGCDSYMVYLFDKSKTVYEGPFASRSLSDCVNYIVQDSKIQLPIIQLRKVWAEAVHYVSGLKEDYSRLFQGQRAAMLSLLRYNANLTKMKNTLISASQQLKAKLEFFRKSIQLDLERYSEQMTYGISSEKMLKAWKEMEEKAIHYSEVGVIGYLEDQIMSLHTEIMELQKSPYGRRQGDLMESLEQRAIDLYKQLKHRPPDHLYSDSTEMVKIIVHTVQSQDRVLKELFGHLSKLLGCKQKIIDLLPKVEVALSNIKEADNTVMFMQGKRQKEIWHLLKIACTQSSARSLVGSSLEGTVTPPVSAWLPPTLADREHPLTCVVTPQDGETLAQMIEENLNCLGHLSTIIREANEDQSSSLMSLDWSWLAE

[22] = system: Mus musculus; experiment: Antiinflammatory activity against MC093-induced atopic dermatitis BALB/c mouse model assessed as reduction in inflammatory cell infiltration in ear at 50 to 100 mg/kg, IG administered starting from day 4 to 10 after MC093-stimulation by H and E staining assay; type: functional, organism-based; details: dose 50-100 mg/kg, time 7.0 day
[23] = system: Mus musculus; experiment: In vivo inhibition of MAPK signalling pathway in MC093-induced atopic dermatitis BALB/c mouse model assessed as reduction in p-P38/P38 ratio in ear skin at 50 to 100 mg/kg, IG administered starting from day 4 to 10 after MC093-stimulation by Western blot analysis; type: functional, organism-based; details: dose 50-100 mg/kg, time 7.0 day
[24] = system: Mus musculus; experiment: Antiinflammatory activity against MC093-induced atopic dermatitis BALB/c mouse model assessed as reduction in ear swelling at 50 to 100 mg/kg, IG administered starting from day 4 to 10 after MC093-stimulation; type: functional, organism-based; details: dose 50-100 mg/kg, time 7.0 day
[25] = system: Mus musculus; experiment: Antiinflammatory activity against MC093-induced atopic dermatitis BALB/c mouse model assessed as reduction in HIS level in serum at 50 to 100 mg/kg, IG administered starting from day 4 to 10 after MC093-stimulation; type: functional, organism-based; details: dose 50-100 mg/kg, time 7.0 day
[26] = target: Transcription factor p65 (Mus musculus) (UniProt Q04207); experiment: Inhibition of P65 phosphorylation in LPS induced mouse RAW264.7 cells preincubated for 2 hrs followed by LPS addition and measured after 24 hrs by Western blot analysis; type: cell-based; details: dose 2.5-10 µmol, time 26.0 hrs
Sequence of Transcription factor p65 (Mus musculus) (Q04207 whole entry): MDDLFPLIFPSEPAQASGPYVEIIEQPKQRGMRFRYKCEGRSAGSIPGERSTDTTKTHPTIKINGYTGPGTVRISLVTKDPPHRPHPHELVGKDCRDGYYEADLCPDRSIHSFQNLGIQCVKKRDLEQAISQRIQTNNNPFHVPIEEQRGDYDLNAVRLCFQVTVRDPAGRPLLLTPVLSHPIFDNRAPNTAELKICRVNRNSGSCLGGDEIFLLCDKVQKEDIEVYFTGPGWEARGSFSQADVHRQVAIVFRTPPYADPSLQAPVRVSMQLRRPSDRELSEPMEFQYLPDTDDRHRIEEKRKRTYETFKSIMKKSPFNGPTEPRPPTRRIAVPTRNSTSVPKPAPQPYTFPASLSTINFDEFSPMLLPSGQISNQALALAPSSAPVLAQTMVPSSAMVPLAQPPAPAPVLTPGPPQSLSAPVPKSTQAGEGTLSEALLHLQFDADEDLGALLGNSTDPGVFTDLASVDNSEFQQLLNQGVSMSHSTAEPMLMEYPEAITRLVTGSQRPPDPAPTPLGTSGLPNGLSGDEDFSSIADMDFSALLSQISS

[27] = system: Mus musculus; experiment: In vivo inhibition of NFkappaB signalling pathway in IG dosed MC093-induced atopic dermatitis BALB/c mouse model assessed as reduction in IkappaB-alpha phosphorylation level in ear skin starting from day 4 to 10 after MC093-stimulation by Western blot analysis; type: functional, organism-based; details: dose 50-100 mg/kg, time 7.0 day

IC50 [4]: 6.31 µM
SMILES: C=C1CC[C@H]2C(=C)CC[C@H]3C(CN(CCNS(=O)(=O)c4ccc(C(C)(C)C)cc4)S(=O)(=O)c4ccc(C(C)(C)C)cc4)C(=O)O[C@@H]3[C@@H]12 (stereo not given in full)
inhibition at 20 µM [1]: 81.2%
IC50 [2]: > 40 µM
cytotoxicity at 20 µM [3]: 9.88%

SMILES: C=C1CC[C@H]2C(=C)CC[C@H]3C(CNCCNCc4cc(Cl)ccc4O)C(=O)O[C@@H]3[C@@H]12 (stereo not given in full)
inhibition at 20 µM [1]: 34.1%
cytotoxicity at 20 µM [3]: 16.7%

IC50 [4]: 4.26 µM
SMILES: C=C1CC[C@H]2C(=C)CC[C@H]3C(CN(CCNS(=O)(=O)c4ccc(OC(F)(F)F)cc4)S(=O)(=O)c4ccc(OC(F)(F)F)cc4)C(=O)O[C@@H]3[C@@H]12 (stereo not given in full)
inhibition at 20 µM [1]: 84%
IC50 [2]: > 40 µM
cytotoxicity at 20 µM [3]: 13.6%

SMILES: C=C1CC[C@H]2C(=C)CC[C@H]3C(CN(CCNS(=O)(=O)c4cccc(Cl)c4F)S(=O)(=O)c4cccc(Cl)c4F)C(=O)O[C@@H]3[C@@H]12 (stereo not given in full)
inhibition at 20 µM [1]: 48.1%
cytotoxicity at 20 µM [3]: 1.67%

IC50 [4]: 19.4 µM
SMILES: C=C1CC[C@H]2C(=C)CC[C@H]3C(CNCCNCc4cc(Cl)cc(Cl)c4O)C(=O)O[C@@H]3[C@@H]12 (stereo not given in full)
inhibition at 20 µM [1]: 51.5%
IC50 [2]: > 40 µM
cytotoxicity at 20 µM [3]: 8.94%

inhibition [18]: Dose-Dependent Effect
inhibition [21]: Dose-Dependent Effect
IC50 [4]: 2.08 µM
inhibition [26]: Dose-Dependent Effect
SMILES: C=C1CC[C@H]2C(=C)CC[C@H]3C(CN(CCNS(=O)(=O)c4ccc(C(F)(F)F)cc4)S(=O)(=O)c4ccc(C(F)(F)F)cc4)C(=O)O[C@@H]3[C@@H]12 (stereo not given in full)
inhibition [5]: inactive
Activity [6]: Active
inhibition at 20 µM [1]: 85.1%
inhibition [7]: inactive
Activity [8]: Active
Activity [9]: Active
Activity [10]: Active
inhibition [11]: Active
Activity [12]: Active
Activity [13]: Active
Activity [14]: Active
Activity [15]: Active
inhibition [16]: Dose-Dependent Effect
Activity [17]: Active
inhibition [19]: Active
IC50 [2]: > 40 µM
cytotoxicity at 20 µM [3]: -6.84%
Activity [20]: Active
Activity [22]: Active
inhibition [23]: inactive
Activity [24]: Active
Activity [25]: inactive
inhibition [27]: Dose-Dependent Effect

SMILES: C=C1CC[C@H]2C(=C)CC[C@H]3C(CNCCNCc4cc(Br)ccc4O)C(=O)O[C@@H]3[C@@H]12 (stereo not given in full)
inhibition at 20 µM [1]: 23.5%
cytotoxicity at 20 µM [3]: -2.07%
